Assay results from patent publication US11413291B2, “Pesticidally active heterocyclic derivatives with sulfur containing substituents” (SYNGENTA PARTICIPATIONS AG, priority 2017, dated 2022).

Legend:
Assay type in all cases: in vivo
Diabrotica balteata = test: Example B4: Diabrotica balteata, sprayed maize sprouts; settings: 96 h, application rate 200 ppm, L2 larvae, 4 days after infestation, read-out: effect in at least one of the two categories (mortality or growth inhibition)
Description: Maize sprouts placed onto an agar layer in 24-well microtiter plates were treated with aqueous test solutions prepared from 10,000 ppm DMSO stock solutions by spraying. After drying, the plates were infested with L2 larvae (6 to 10 per well). The samples were assessed for mortality and growth inhibition in comparison to untreated samples 4 days after infestation.

[1] = tested on: Frankliniella occidentalis; test: Example B11: Frankliniella occidentalis, sprayed sunflower leaf discs; settings: foliar, 168 h, application rate 200 ppm, mixed ages, 7 days after infestation
Description: Sunflower leaf discs were placed on agar in 24-well microtiter plates and sprayed with aqueous test solutions prepared from 10,000 DMSO stock solutions. After drying the leaf discs were infested with a Frankliniella population of mixed ages. The samples were assessed for mortality 7 days after infestation.

Bemisia tabaci = test: Example B7: Bemisia tabaci, sprayed cotton leaf discs; settings: foliar, 144 h, application rate 200 ppm, adult white flies, 6 days after incubation
Description: Cotton leaf discs were placed on agar in 24-well microtiter plates and sprayed with aqueous test solutions prepared from 10,000 ppm DMSO stock solutions. After drying the leaf discs were infested with adult white flies. The samples were checked for mortality 6 days after incubation.

Spodoptera littoralis [2] = test: Example B1: Spodoptera littoralis, sprayed cotton leaf discs; settings: foliar, 72 h, application rate 200 ppm, L1 larvae, 3 days after infestation
Description: Cotton leaf discs were placed onto agar in 24-well microtiter plates and sprayed with aqueous test solutions prepared from 10′000 ppm DMSO stock solutions. After drying the leaf discs were infested with five L1 larvae. The samples were assessed for mortality, anti-feeding effect, and growth inhibition in comparison to untreated samples 3 days after infestation. Control of Spodoptera littoralis by a test sample is given when at least one of the categories mortality, anti-feedant effect, and growth inhibition is higher than the untreated sample.

Plutella xylostella = test: Example B3: Plutella xylostella, artificial diet; settings: 120 h, application rate 200 ppm, L2 larvae, 5 days after infestation, read-out: effect in at least one of the two categories (mortality or growth inhibition)
Description: 24-well microtiter plates with artificial diet were treated with aqueous test solutions prepared from 10,000 ppm DMSO stock solutions by pipetting. After drying, the plates were infested with L2 larvae (10 to 15 per well). The samples were assessed for mortality and growth inhibition in comparison to untreated samples 5 days after infestation.

Myzus persicae [3] = test: Example B5: Myzus persicae feeding/contact, sprayed sunflower leaf discs; settings: Myzus persicae, foliar, 144 h; application rate 200 ppm; mixed ages; 6 days after infestation
Description: Sunflower leaf discs were placed onto agar in a 24-well microtiter plate and sprayed with aqueous test solutions prepared from 10,000 ppm DMSO stock solutions. After drying, the leaf discs were infested with an aphid population of mixed ages. The samples were assessed for mortality 6 days after infestation.

Tetranychus urticae = test: Example B10: Tetranychus urticae, sprayed bean leaf discs; settings: foliar, 192 h, application rate 200 ppm, mixed population (mobile stages), 8 days after infestation
Description: Bean leaf discs on agar in 24-well microtiter plates were sprayed with aqueous test solutions prepared from 10,000 ppm DMSO stock solutions. After drying the leaf discs were infested with a mite population of mixed ages. The samples were assessed for mortality on mixed population (mobile stages) 8 days after infestation.

Myzus persicae [4] = test: Example B6: Myzus persicae systemic, pea seedling roots in test solution; settings: Myzus persicae, 144 h; test rate 24 ppm; mixed ages; 6 days
Description: Roots of pea seedlings infested with an aphid population of mixed ages were placed directly into aqueous test solutions prepared from 10,000 DMSO stock solutions. The samples were assessed for mortality 6 days after placing seedlings into test solutions.

Spodoptera littoralis [5] = test: Example B2: Spodoptera littoralis, systemic uptake via lettuce roots from agar; settings: 144 h, test rate 12.5 ppm, 6 days after infestation, read-out: effect in at least one of the three categories (mortality, anti-feeding, or growth inhibition)
From the text: Test compounds were applied by pipette from 10′000 ppm DMSO stock solutions into 24-well plates and mixed with agar. Lettuce seeds were placed onto the agar and the multi well plate was closed by another plate which contained also agar. After 7 days the compound was absorbed by the roots and the lettuce grew into the lid plate. The lettuce leaves were then cut off into the lid plate. Spodoptera eggs were pipetted through a plastic stencil onto a humid gel blotting paper and the lid plate was closed with it. The samples were assessed for mortality, anti-feedant effect and growth inhibition in comparison to untreated samples 6 days after infestation.

Euschistus heros = test: Example B8: Euschistus heros, sprayed soybean leaves; settings: Euschistus heros, 120 h; application rate 200 ppm; N2 nymphs; 5 days after infestation; read-out: effect in at least one of the two categories (mortality or growth inhibition)
Description: Soybean leaves on agar in 24-well microtiter plates were sprayed with aqueous test solutions prepared from 10,000 ppm DMSO stock solutions. After drying the leaves were infested with N2 nymphs. The samples were assessed for mortality and growth inhibition in comparison to untreated samples 5 days after infestation.

CCS(=O)(=O)c1cc(C(C)(C)C#N)cnc1-c1cn2ccc(C(F)(F)C(F)(F)F)cc2n1 [Compound P6, 2-[5-ethylsulfonyl-6-[7-(1,1,2,2,2-pentafluoroethyl)imidazo[1,2-a]pyridin-2-yl]-3-pyridyl]-2-methyl-propanenitrile]
≥ 80%: percent effect (mortality or growth inhibition) at 200 ppm (Diabrotica balteata) | mortality at 200 ppm [1] | mortality at 200 ppm (Bemisia tabaci) | percent control (mortality, anti-feedant effect or growth inhibition) at 200 ppm (Spodoptera littoralis [2]) | percent effect (mortality or growth inhibition) at 200 ppm (Plutella xylostella) | mortality at 200 ppm (Myzus persicae [3]) | mortality at 200 ppm (Tetranychus urticae)

CCS(=O)(=O)c1cc(C(C)(C)C#N)cnc1-c1nc2cc(C(F)(F)F)n(C3CC3)c(=O)c2n1C [Compound P17, 2-[6-[5-cyclopropyl-3-methyl-4-oxo-6-(trifluoromethyl)imidazo[4,5-c]pyridin-2-yl]-5-ethylsulfonyl-3-pyridyl]-2-methyl-propanenitrile]
≥ 80%: percent effect (mortality or growth inhibition) at 200 ppm (Diabrotica balteata) | mortality at 200 ppm [1] | mortality at 200 ppm (Bemisia tabaci) | mortality at 24 ppm (Myzus persicae [4]) | percent control (mortality, anti-feedant effect or growth inhibition) at 200 ppm (Spodoptera littoralis [2]) | percent effect (mortality or growth inhibition) at 200 ppm (Plutella xylostella) | mortality at 200 ppm (Myzus persicae [3]) | mortality at 200 ppm (Tetranychus urticae)

CCS(=O)(=O)c1cc(C(C)(C)C#N)cnc1-c1cn2ccc(SC(F)(F)F)cc2n1 [Compound P7, 2-[5-ethylsulfonyl-6-[7-(trifluoromethylsulfanyl)imidazo[1,2-a]pyridin-2-yl]-3-pyridyl]-2-methyl-propanenitrile]
≥ 80%: percent effect (mortality or growth inhibition) at 200 ppm (Diabrotica balteata) | mortality at 200 ppm [1] | mortality at 200 ppm (Bemisia tabaci) | percent control (mortality, anti-feedant effect or growth inhibition) at 200 ppm (Spodoptera littoralis [2]) | percent effect (mortality or growth inhibition) at 200 ppm (Plutella xylostella) | mortality at 200 ppm (Myzus persicae [3])

CCS(=O)(=O)c1cc(C(C)(C)C#N)ccc1-c1nc2cc(C(F)(F)F)n(C3CC3)c(=O)c2n1C [Compound P12, 2-[4-[5-cyclopropyl-3-methyl-4-oxo-6-(trifluoromethyl)imidazo[4,5-c]pyridin-2-yl]-3-ethylsulfonyl-phenyl]-2-methyl-propanenitrile]
≥ 80%: percent effect (mortality or growth inhibition) at 200 ppm (Diabrotica balteata) | mortality at 200 ppm [1] | mortality at 200 ppm (Bemisia tabaci) | percent control (mortality, anti-feedant effect or growth inhibition) at 200 ppm (Spodoptera littoralis [2]) | percent effect (mortality or growth inhibition) at 200 ppm (Plutella xylostella) | mortality at 200 ppm (Myzus persicae [3]) | mortality at 200 ppm (Tetranychus urticae)

CCn1c(C(F)(F)F)cc2nc(-c3ncc(C(C)(C)C#N)cc3S(=O)(=O)CC)n(C)c2c1=O [Compound P3, 2-[6-[5-ethyl-3-methyl-4-oxo-6-(trifluoromethyl)imidazo[4,5-c]pyridin-2-yl]-5-ethylsulfonyl-3-pyridyl]-2-methyl-propanenitrile]
≥ 80%: percent effect (mortality, anti-feeding or growth inhibition) at 12.5 ppm (Spodoptera littoralis [5]) | percent effect (mortality or growth inhibition) at 200 ppm (Diabrotica balteata) | mortality at 200 ppm [1] | mortality at 200 ppm (Bemisia tabaci) | mortality at 24 ppm (Myzus persicae [4]) | percent control (mortality, anti-feedant effect or growth inhibition) at 200 ppm (Spodoptera littoralis [2]) | percent effect (mortality or growth inhibition) at 200 ppm (Plutella xylostella) | mortality at 200 ppm (Myzus persicae [3]) | percent effect (mortality or growth inhibition) at 200 ppm (Euschistus heros) | mortality at 200 ppm (Tetranychus urticae)
